Results on three compounds are retold here after ChEMBL document CHEMBL3862012, “Methylene versus carbonyl bridge in the structure of new tubulin polymerization inhibitors with tricyclic A-rings” (Bioorg Med Chem, 2016).

The first assay in a line: Cytotoxicity against human ACHN cells assessed as growth inhibition after 48 hrs by SRB assay. The class given is functional.
Conditions: not given
Usually GI50 stands for the concentration at which growth is held to half of that of the control. Consider `COc1ccc(CN2c3ccccc3Sc3ccccc32)cc1O`, for which the concentration for 50% growth inhibition (GI50) is 1560 nM.
On to `COc1ccc(CN2c3ccccc3Sc3ccccc32)cc1F`, for which the GI50 worked out at 1220 nM.

The nature of another assay: Cytotoxicity against human IGROV1 cells assessed as growth inhibition after 48 hrs by SRB assay. Type of assay: functional. The note with it: IGROV-1, 48 h. Background: In SRB staining, fixed cells bind dye roughly in proportion to their protein.
For the compound `COc1ccc(CN2c3ccccc3Sc3ccccc32)c(F)c1`, the GI50 came to 46 nM.
Same read-out and setting: to `COc1ccc(CN2c3ccccc3Sc3ccccc32)cc1O` belongs 1930 nM; to `COc1ccc(CN2c3ccccc3Sc3ccccc32)cc1F`, 1070 nM.

The next assay can be described thus: Cytotoxicity against human SF539 cells assessed as growth inhibition after 48 hrs by SRB assay. Type of assay: functional. Particulars: SF-539, 48 h.
Turning to `COc1ccc(CN2c3ccccc3Sc3ccccc32)cc1O`, the GI50 came out at 270 nM.
Same read-out and setting: to `COc1ccc(CN2c3ccccc3Sc3ccccc32)cc1F` belongs 330 nM.

The next assay is described as follows: Cytotoxicity against human A498 cells assessed as growth inhibition after 48 hrs by SRB assay. The class given is functional. Particulars: A498, 48 h.
For `COc1ccc(CN2c3ccccc3Sc3ccccc32)cc1O`, the GI50 was 2710 nM.
As to `COc1ccc(CN2c3ccccc3Sc3ccccc32)cc1F`, the GI50 was 283 nM.

The next assay is described as follows: Cytotoxicity against human SR cells assessed as growth inhibition after 48 hrs by SRB assay. The class given is functional.
Conditions: not given
As for `COc1ccc(CN2c3ccccc3Sc3ccccc32)c(F)c1`, the GI50 came to 60 nM.
In the case of `COc1ccc(CN2c3ccccc3Sc3ccccc32)cc1O`, the GI50 stood at 407 nM.
With `COc1ccc(CN2c3ccccc3Sc3ccccc32)cc1F`, the GI50 was determined as 354 nM.

A short description of the next assay: Cytotoxicity against human HOP62 cells assessed as growth inhibition after 48 hrs by SRB assay. The class given is functional. Particulars: HOP-62, 48 h.
In the case of `COc1ccc(CN2c3ccccc3Sc3ccccc32)cc1O`, the 50% growth inhibitory concentration (GI50) worked out at 384 nM.
In the case of `COc1ccc(CN2c3ccccc3Sc3ccccc32)cc1F`, the GI50 was found to be 506 nM.

A short description of a further assay: Cytotoxicity against human SNB75 cells assessed as growth inhibition after 48 hrs by SRB assay. Particulars: SNB-75, 48 h. Type of assay: functional.
Take `COc1ccc(CN2c3ccccc3Sc3ccccc32)cc1O`: the 50% growth inhibitory concentration (GI50) came out at 180 nM.
With `COc1ccc(CN2c3ccccc3Sc3ccccc32)cc1F`, the GI50 stood at 204 nM.

Another assay is described as follows: Cytotoxicity against human LOXIMVI cells assessed as growth inhibition after 48 hrs by SRB assay. Type of assay: functional. The note with it: LOX IMVI.
Regarding `COc1ccc(CN2c3ccccc3Sc3ccccc32)cc1O`, the GI50 was 710 nM.
As for `COc1ccc(CN2c3ccccc3Sc3ccccc32)cc1F`, the GI50 came to 722 nM.

The next assay in a line: Cytotoxicity against human A549 cells assessed as growth inhibition after 48 hrs by SRB assay. Particulars: A549, 48 h. Type of assay: functional.
Turning to `COc1ccc(CN2c3ccccc3Sc3ccccc32)cc1O`, the GI50 came to 471 nM.
As for `COc1ccc(CN2c3ccccc3Sc3ccccc32)cc1F`, the 50% growth inhibitory concentration (GI50) came out at 757 nM.

A further assay in a line: Cytotoxicity against human HOP92 cells assessed as growth inhibition after 48 hrs by SRB assay. The class given is functional. Particulars: HOP-92, 48 h.
`COc1ccc(CN2c3ccccc3Sc3ccccc32)cc1O`: the GI50 came to 502 nM.
With `COc1ccc(CN2c3ccccc3Sc3ccccc32)cc1F`, the 50% growth inhibitory concentration (GI50) was determined as 806 nM.

The nature of the next assay: Cytotoxicity against human K562 cells assessed as growth inhibition at 10 uM after 48 hrs by SRB assay relative to control. The class given is functional. Particulars: K562, 48 h, read-out: GI.
Consider `COc1ccc(CN2c3ccccc3Sc3ccccc32)c(F)c1`, for which the inhibition of growth at 10 µM is 91%.
Consider `COc1ccc(CN2c3ccccc3Sc3ccccc32)cc1F`, for which the inhibition of growth at 10 µM was 89%.

A short description of another assay: Cytotoxicity against human MDA-MB-435 cells assessed as growth inhibition after 48 hrs by SRB assay. The class given is functional. The note with it: MDA-MB-435, 48 h.
Regarding `COc1ccc(CN2c3ccccc3Sc3ccccc32)c(F)c1`, the GI50 is 25 nM.
As for `COc1ccc(CN2c3ccccc3Sc3ccccc32)cc1O`, the GI50 was 234 nM.
As to `COc1ccc(CN2c3ccccc3Sc3ccccc32)cc1F`, the GI50 came out at 189 nM.

Another assay can be described thus: Cytotoxicity against human NCI-H23 cells assessed as growth inhibition after 48 hrs by SRB assay. The class given is functional. Particulars: NCI-H23, 48 h.
Consider `COc1ccc(CN2c3ccccc3Sc3ccccc32)cc1O`, for which the GI50 turned out to be 364 nM.
Regarding `COc1ccc(CN2c3ccccc3Sc3ccccc32)cc1F`, the GI50 was determined as 764 nM.

A short description of another assay: Cytotoxicity against human MALME-3M cells assessed as growth inhibition after 48 hrs by SRB assay. Type of assay: functional.
Conditions: not given
Turning to `COc1ccc(CN2c3ccccc3Sc3ccccc32)cc1O`, the GI50 was determined as 12200 nM.

The next assay is described as follows: Cytotoxicity against human UACC62 cells assessed as growth inhibition after 48 hrs by SRB assay. Type of assay: functional. The note with it: UACC-62, 48 h.
With `COc1ccc(CN2c3ccccc3Sc3ccccc32)cc1O`, the GI50 stood at 682 nM.
As for `COc1ccc(CN2c3ccccc3Sc3ccccc32)cc1F`, the GI50 is 499 nM.

The nature of a further assay: Cytotoxicity against human HCC2998 cells assessed as growth inhibition at 10 uM after 48 hrs by SRB assay relative to control. The class given is functional. The note with it: HCC 2998, 48 h, read-out: GI.
Take `COc1ccc(CN2c3ccccc3Sc3ccccc32)c(F)c1`: the inhibition of growth at 10 µM is 38%.
For the compound `COc1ccc(CN2c3ccccc3Sc3ccccc32)cc1F`, the inhibition of growth at 10 µM came to 82%.

The next assay can be described thus: Cytotoxicity against human SN12C cells assessed as growth inhibition after 48 hrs by SRB assay. Type of assay: functional.
Conditions: not given
Take `COc1ccc(CN2c3ccccc3Sc3ccccc32)c(F)c1`: the concentration for 50% growth inhibition (GI50) is 10600 nM.
On to `COc1ccc(CN2c3ccccc3Sc3ccccc32)cc1O`, for which the GI50 is 1290 nM.
`COc1ccc(CN2c3ccccc3Sc3ccccc32)cc1F`: the GI50 was found to be 575 nM.

The next assay can be described thus: Cytotoxicity against human SK-MEL-28 cells assessed as growth inhibition after 48 hrs by SRB assay. The class given is functional. Particulars: SK-MEL-28, 48 h.
As to `COc1ccc(CN2c3ccccc3Sc3ccccc32)c(F)c1`, the GI50 was 5050 nM.
Take `COc1ccc(CN2c3ccccc3Sc3ccccc32)cc1O`: the concentration for 50% growth inhibition (GI50) came out at 14400 nM.

The next assay can be described thus: Cytotoxicity against human UACC62 cells assessed as growth inhibition at 10 uM after 48 hrs by SRB assay relative to control. Type of assay: functional. Particulars: UACC-62, 48 h, read-out: GI.
Turning to `COc1ccc(CN2c3ccccc3Sc3ccccc32)c(F)c1`, the inhibition of growth at 10 µM is 67%.
Turning to `COc1ccc(CN2c3ccccc3Sc3ccccc32)cc1F`, the inhibition of growth at 10 µM came out at 72%.

Another assay in a line: Cytotoxicity against human MCF7 cells assessed as growth inhibition after 48 hrs by SRB assay. Particulars: MCF7, 48 h. Type of assay: functional.
As to `COc1ccc(CN2c3ccccc3Sc3ccccc32)c(F)c1`, the 50% growth inhibitory concentration (GI50) is 33 nM.
Consider `COc1ccc(CN2c3ccccc3Sc3ccccc32)cc1O`, for which the GI50 amounted to 355 nM.
On the same count and under the same terms, the same measure for `COc1ccc(CN2c3ccccc3Sc3ccccc32)cc1F`: 365 nM.

Another assay is described as follows: Cytotoxicity against human MDA-MB-468 cells assessed as growth inhibition after 48 hrs by SRB assay. The class given is functional. The note with it: MDA-MB-468, 48 h.
Regarding `COc1ccc(CN2c3ccccc3Sc3ccccc32)cc1O`, the concentration for 50% growth inhibition (GI50) turned out to be 531 nM.
With `COc1ccc(CN2c3ccccc3Sc3ccccc32)cc1F`, the GI50 stood at 309 nM.

Another assay is described as follows: Cytotoxicity against human SN12C cells assessed as growth inhibition at 10 uM after 48 hrs by SRB assay relative to control. Type of assay: functional. The note with it: read-out: GI.
With `COc1ccc(CN2c3ccccc3Sc3ccccc32)c(F)c1`, the inhibition of growth at 10 µM was found to be 53%.
Still for that read-out and setting: the same measure for `COc1ccc(CN2c3ccccc3Sc3ccccc32)cc1F`: 55%.

A further assay can be described thus: Cytotoxicity against human PC3 cells assessed as growth inhibition after 48 hrs by SRB assay. Type of assay: functional. The note with it: PC-3, 48 h.
Turning to `COc1ccc(CN2c3ccccc3Sc3ccccc32)cc1O`, the GI50 was found to be 503 nM.
In the case of `COc1ccc(CN2c3ccccc3Sc3ccccc32)cc1F`, the GI50 was found to be 485 nM.

The next assay is described as follows: Cytotoxicity against human DU145 cells assessed as growth inhibition after 48 hrs by SRB assay. The class given is functional. Particulars: DU-145, 48 h.
Consider `COc1ccc(CN2c3ccccc3Sc3ccccc32)cc1O`, for which the concentration for 50% growth inhibition (GI50) is 374 nM.
For the compound `COc1ccc(CN2c3ccccc3Sc3ccccc32)cc1F`, the GI50 is 438 nM.

The next assay is described as follows: Cytotoxicity against human RPMI8226 cells assessed as growth inhibition after 48 hrs by SRB assay. Type of assay: functional. The note with it: RPMI-8226, 48 h.
`COc1ccc(CN2c3ccccc3Sc3ccccc32)cc1O`: the GI50 turned out to be 420 nM.
On the same count and under the same terms, to `COc1ccc(CN2c3ccccc3Sc3ccccc32)cc1F` belongs 482 nM.

The nature of the next assay: Cytotoxicity against human OVCAR8 cells assessed as growth inhibition after 48 hrs by SRB assay. Type of assay: functional. Particulars: OVCAR-8, 48 h.
Regarding `COc1ccc(CN2c3ccccc3Sc3ccccc32)cc1O`, the GI50 came to 508 nM.
For the compound `COc1ccc(CN2c3ccccc3Sc3ccccc32)cc1F`, the GI50 is 663 nM.

Another assay in a line: Cytotoxicity against human OVCAR3 cells assessed as growth inhibition after 48 hrs by SRB assay. Type of assay: functional. Particulars: OVCAR-3, 48 h.
For the compound `COc1ccc(CN2c3ccccc3Sc3ccccc32)cc1O`, the GI50 came to 304 nM.
As for `COc1ccc(CN2c3ccccc3Sc3ccccc32)cc1F`, the GI50 is 264 nM.

A further assay in a line: Cytotoxicity against human SKOV3 cells assessed as growth inhibition after 48 hrs by SRB assay. The class given is functional. Particulars: SK-OV-3, 48 h.
Turning to `COc1ccc(CN2c3ccccc3Sc3ccccc32)cc1O`, the GI50 was found to be 521 nM.
For `COc1ccc(CN2c3ccccc3Sc3ccccc32)cc1F`, the GI50 was found to be 475 nM.

Another assay in a line: Cytotoxicity against human UO31 cells assessed as growth inhibition after 48 hrs by SRB assay. The note with it: UO-31, 48 h. Type of assay: functional.
Take `COc1ccc(CN2c3ccccc3Sc3ccccc32)cc1O`: the GI50 was determined as 752 nM.
Turning to `COc1ccc(CN2c3ccccc3Sc3ccccc32)cc1F`, the 50% growth inhibitory concentration (GI50) was 916 nM.

The next assay is described as follows: Cytotoxicity against human OVCAR4 cells assessed as growth inhibition after 48 hrs by SRB assay. The class given is functional. The note with it: OVCAR-4, 48 h.
Consider `COc1ccc(CN2c3ccccc3Sc3ccccc32)cc1O`, for which the GI50 is 726 nM.
For `COc1ccc(CN2c3ccccc3Sc3ccccc32)cc1F`, the GI50 came to 7250 nM.

The nature of a further assay: Cytotoxicity against human SF268 cells assessed as growth inhibition after 48 hrs by SRB assay. The class given is functional. The note with it: SF-268, 48 h.
As for `COc1ccc(CN2c3ccccc3Sc3ccccc32)cc1O`, the GI50 worked out at 966 nM.
For `COc1ccc(CN2c3ccccc3Sc3ccccc32)cc1F`, the GI50 turned out to be 1430 nM.

Another assay can be described thus: Inhibition of sheep brain tubulin polymerization by DAPI staining-based fluorimetric method. More on the design: species or system Ovis aries.
Conditions: not given
What is called IC50 is the concentration that inhibits the measured activity by half. The low end stands for greater potency in that assay, the high end for weaker potency in that assay. For `COc1ccc(CN2c3ccccc3Sc3ccccc32)cc1O`, the IC50 was 9200 nM.
As for `COc1ccc(CN2c3ccccc3Sc3ccccc32)cc1F`, half-maximal inhibition (IC50) was put at 20700 nM.

A short description of another assay: Cytotoxicity against human EKVX cells assessed as growth inhibition after 48 hrs by SRB assay. The class given is functional.
Conditions: not given
Take `COc1ccc(CN2c3ccccc3Sc3ccccc32)cc1O`: the GI50 came out at 378 nM.
Take `COc1ccc(CN2c3ccccc3Sc3ccccc32)cc1F`: the GI50 was 612 nM.

The nature of another assay: Cytotoxicity against human RXF393 cells assessed as growth inhibition after 48 hrs by SRB assay. Type of assay: functional. The note with it: RXF 393, 48 h.
With `COc1ccc(CN2c3ccccc3Sc3ccccc32)cc1O`, the 50% growth inhibitory concentration (GI50) was determined as 338 nM.
In the case of `COc1ccc(CN2c3ccccc3Sc3ccccc32)cc1F`, the concentration for 50% growth inhibition (GI50) came to 304 nM.
